Reference: US10138230B2, “Autotaxin inhibitors” (CANCER RESEARCH TECHNOLOGY LIMITED, priority 2015, dated 2018)
Structures can show the parent of a compound that is named as a salt.

Target: human recombinant ATX (Homo sapiens (Human), UniProt Q13822)
Assay: Autotaxin (ATX) activity Quanta Red assay
Format: biochemical
Settings: 15 μM Rac-1-Palmitoyl-glycero-3-phosphocholine, 2 hours room temperature, determined in duplicate
Description: The ATX enzyme assay (Quanta Red assay) described in accompanying Example section may be used to measure the pharmacological effects of the compounds of the present invention.
Autotaxin (ATX) Activity Quanta Red Assay
Measuring ATX activity using an enzyme coupled Quanta Red assay (Thermo Scientific—Pierce Protein Research Products, Product #15159) was determined as follows. 8 μL human recombinant ATX (final concentration 0.8 μg/mL) in 1× Assay buffer containing 50 mM Tris-HCl (pH 8.0), 5 mM CaCl2 was added to an opaque black flat-bottom 384-well plate (Corning, #3575) containing 2 μL test compound in 40% DMSO (4% final DMSO concentration). 10 μL of Quanta Red, Horseradish peroxidase (HRP), Choline Oxidase (CO), Rac-1-Palmitoyl-glycero-3-phosphocholine solution (final concentration 1:250 for Quanta Red, 0.5units/ml HRP, 0.5units/ml CO, 15 μM Rac-1-Palmitoyl-glycero-3-phosphocholine) in 1× assay buffer (as described previously) was added to each well to start the reaction and the plate was incubated at room temperature for 2 hours. The reaction was stopped after 2 hours with a 20 μL addition of Quanta Red Stop solution (1:20 dilution in distilled water). The above-described mixture with DMSO alone was used as a positive control whereas that with DMSO alone without ATX was taken as a negative control.
For each test compound, ten concentrations were measured covering a range of 6.1 nM to 120 μM to determine IC50 values. The top concentration was decreased to 1.2 μM when a test compound's IC50 value was evaluated in low nanomolar range. Fluorescence was determined in a BMG Labtech Pherastar plus plate reader ([…]). Data were analysed using Excel fit software. IC50 values were determined in duplicate.

Compound	IC50
C[C@@H]1CN(Cc2ccc(N3CC(C(=O)Nc4nnc(CCc5ccc(Cl)cc5)s4)CC3=O)cc2)C[C@H](C)O1 (stereo partly drawn) [Compound F119, N-[5-[2-(4-chlorophenyl)ethyl]-1,3,4-thiadiazol-2-yl]-1-[4-[[(2S,6R)-2,6-dimethylmorpholin-4-yl]methyl]phenyl]-5-oxo-pyrrolidine-3-carboxamide]	4 nM
CC1CCN(Cc2ccc(N3C[C@H](NC(=O)c4nnc(CCc5ccc(Cl)cc5)s4)CC3=O)cc2)CC1 [Compound F138, 5-[2-(4-chlorophenyl)ethyl]-N-[(3R)-1-[4-[(4-methyl-1-piperidyl)methyl]phenyl]-5-oxo-pyrrolidin-3-yl]-1,3,4-thiadiazole-2-carboxamide]	5 nM
O=C(Nc1nnc(CCC2CCCC2)s1)C1CC(=O)N(c2ccc(CN3CCCCC3)cc2)C1 (stereo not drawn) [Compound F166, N-[5-(2-cyclopentylethyl)-1,3,4-thiadiazol-2-yl]-5-oxo-1-[4-(1-piperidylmethyl)phenyl] pyrrolidine-3-carboxamide]	16 nM
CN(Cc1ccc(N2CC(C(=O)Nc3nnc(CCc4ccc(Cl)cc4)s3)CC2=O)cc1)C1CCOCC1 (stereo not drawn) [Compound F111, N-[5-[2-(4-chlorophenyl)ethyl]-1,3,4-thiadiazol-2-yl]-1-[4-[[methyl(tetrahydropyran-4-yl)amino]methyl]phenyl]-5-oxo-pyrrolidine-3-carboxamide]	3 nM
O=C(Nc1nnc(CCc2ccc(Cl)cc2)s1)[C@H]1CC(=O)N(c2ccc(CN3CCC4(COC4)C3)cc2)C1 [Compound F212, (3S)-N-[5-[2-(4-chlorophenyl)ethyl]-1,3,4-thiadiazol-2-yl]-1-[4-(2-oxa-7-azaspiro[3.4]octan-7-ylmethyl)phenyl]-5-oxo-pyrrolidine-3-carboxamide]	1 nM
O=C(Nc1nnc(CCc2ccc(Cl)cc2)s1)C1CC(=O)N(c2ccc(CN3CCCCCC3)cc2)C1 (stereo not drawn) [Compound F114, 1-[4-(azepan-1-ylmethyl)phenyl]-N-[5-[2-(4-chlorophenyl)ethyl]-1,3,4-thiadiazol-2-yl]-5-oxo-pyrrolidine-3-carboxamide]	3 nM
O=C(Nc1nnc(CCc2ccc(Cl)cc2)s1)[C@H]1CC(=O)N(c2ccc(CN3CC4(COC4)C3)cc2)C1 [Compound F213, (3S)-N-[5-[2-(4-chlorophenyl)ethyl]-1,3,4-thiadiazol-2-yl]-1-[4-(2-oxa-6-azaspiro[3.3]heptan-6-ylmethyl)phenyl]-5-oxo-pyrrolidine-3-carboxamide]	1 nM
O=C(Nc1nnc(CCC2CCCCC2)s1)C1CC(=O)N(c2ccc(CN3CCOCC3)cc2)C1 (stereo not drawn) [Compound F147, N-[5-(2-cyclohexylethyl)-1,3,4-thiadiazol-2-yl]-1-[4-(morpholinomethyl)phenyl]-5-oxo-pyrrolidine-3-carboxamide]	2 nM
O=C(NC1CC(=O)N(c2ccc(CN3CCCCC3)cc2)C1)c1nnc(CCc2ccccc2)s1 (stereo not drawn) [Compound F172, N-[5-oxo-1-[4-(1-piperidylmethyl)phenyl]pyrrolidin-3-yl]-5-(2-phenylethyl)-1,3,4-thiadiazole-2-carboxamide]	76 nM
COCCN(C)Cc1ccc(N2C[C@@H](C(=O)Nc3nnc(CCc4ccc(Cl)cc4)s3)CC2=O)cc1 [Compound F94, (3S)-N-[5-[2-(4-chlorophenyl)ethyl]-1,3,4-thiadiazol-2-yl]-1-[4-[[2-methoxyethyl(methyl)amino]methyl]phenyl]-5-oxo-pyrrolidine-3-carboxamide]	1 nM
O=C(NC1CC(=O)N(c2ccc(CN3CCCCC3)cc2)C1)c1cc(CCc2ccccc2)no1 (stereo not drawn) [Compound F198, N-[5-oxo-1-[4-(1-piperidylmethyl)phenyl]pyrrolidin-3-yl]-3-(2-phenylethyl)isoxazole-5-carboxamide]	989 nM
CN(Cc1ccc(N2C[C@@H](C(=O)Nc3cc(CCc4ccc(Cl)cc4)on3)CC2=O)cc1)C1CCOC1 (stereo partly drawn) [Compound F152, (3S)-N-[5-[2-(4-chlorophenyl)ethyl]isoxazol-3-yl]-1-[4-[[methyl(tetrahydrofuran-3-yl)amino]methyl]phenyl]-5-oxo-pyrrolidine-3-carboxamide]	2 nM
CN1CCC(C(=O)NCc2ccc(N3CC(C(=O)Nc4nnc(CCc5ccc(Cl)cc5)s4)CC3=O)cc2)CC1 (stereo not drawn) [Compound F184, 1-Methyl-piperidine-4-carboxylic acid 4-(4-{5-[2-(4-chloro-phenyl)-ethyl]-[1,3,4]thiadiazol-2-ylcarbamoyl}-2-oxo-pyrrolidin-1-yl)-benzylamide]	45 nM
O=C(Nc1nnc(CCc2ccccc2)s1)C1CC(=O)N(c2ccc(CN3CCOCC3)cc2)C1 (stereo not drawn) [Compound F176, 1-[4-(morpholinomethyl)phenyl]-5-oxo-N-[5-(2-phenylethyl)-1,3,4-thiadiazol-2-yl]pyrrolidine-3-carboxamide]	11 nM
O=C(Nc1nnc(SCc2ccc(F)cc2)s1)C1CC(=O)N(c2ccc(CN3CCOCC3)cc2)C1 (stereo not drawn) [Compound F154, 1-(4-morpholin-4-ylmethyl-phenyl)-5-oxo-pyrrolidine-3-carboxylic acid [5-(4-fluoro-benzylsulfanyl)-[1,3,4]thiadiazol-2-yl]-amide]	3 nM
O=C(NC1CC(=O)N(c2ccc(CN3CCCCC3)cc2)C1)c1cnc(CCc2ccccc2)s1 (stereo not drawn) [Compound F206, N-[5-oxo-1-[4-(1-piperidylmethyl)phenyl]pyrrolidin-3-yl]-2-(2-phenylethyl)thiazole-5-carboxamide]	9350 nM
CCN(Cc1ccc(N2CC(C(=O)Nc3nnc(CCc4ccc(Cl)cc4)s3)CC2=O)cc1)CC(C)C (stereo not drawn) [Compound F112, N-[5-[2-(4-chlorophenyl)ethyl]-1,3,4-thiadiazol-2-yl]-1-[4-[[ethyl(isobutyl)amino]methyl]phenyl]-5-oxo-pyrrolidine-3-carboxamide]	3 nM
O=C(N[C@H]1CC(=O)N(c2ccc(CN3CCCCC3)cc2)C1)c1cc(CCc2ccc(Cl)cc2)on1 [Compound F145, 5-[2-(4-chlorophenyl)ethyl]-N-[(3S)-5-oxo-1-[4-(1-piperidylmethyl)phenyl]pyrrolidin-3-yl]isoxazole-3-carboxamide]	3 nM
CC(C)N(C)Cc1ccc(N2CC(C(=O)Nc3nnc(CCc4ccc(Cl)cc4)s3)CC2=O)cc1 (stereo not drawn) [Compound F159, N-[5-[2-(4-chlorophenyl)ethyl]-1,3,4-thiadiazol-2-yl]-1-[4-[[isopropyl (methyl)amino]methyl]phenyl]-5-oxo-pyrrolidine-3-carboxamide]	18 nM
O=C(NC1CC(=O)N(c2ccc(CN3CCCCC3)cc2)C1)c1cc(CCc2ccccc2)[nH]n1 (stereo not drawn) [Compound F204, 5-phenethyl-1H-pyrazole-3-carboxylic acid [5-oxo-1-(4-piperidin-1-ylmethyl-phenyl)-pyrrolidin-3-yl]-amide hydrochloride]	1080 nM
O=C(N[C@H]1CCN(c2ccc(CN3CCOCC3)cc2)C1)c1nnc(CCc2ccc(Cl)cc2)s1 [Compound F167, 5-[2-(4-Chloro-phenyl)-ethyl]-[1,3,4]thiadiazole-2-carboxylic acid [(S)-1-(4-morpholin-4-ylmethyl-phenyl)-pyrrolidin-3-yl]-amide]	16 nM
CN(Cc1ccc(N2C[C@@H](C(=O)Nc3ccc(CCc4ccc(F)cc4)nn3)CC2=O)cc1)C1COC1 [Compound F155, (3S)-N-[6-[2-(4-fluorophenyl)ethyl]pyridazin-3-yl]-1-[4-[[methyl(oxetan-3-yl)amino]methyl]phenyl]-5-oxo-pyrrolidine-3-carboxamide]	11 nM
O=C(N[C@H]1CC(=O)N(c2ccc(CN3CCCCC3)cc2)C1)c1cc(CCc2ccc(F)cc2)on1 [Compound F174, 5-[2-(4-fluorophenyl)ethyl]-N-[(3S)-5-oxo-1-[4-(1-piperidylmethyl)phenyl]pyrrolidin-3-yl]isoxazole-3-carboxamide]	33 nM
O=C(Nc1nnc(CCc2ccc(Cl)cc2)s1)C1CC(=O)N(c2ccc(CNC3CCOCC3)cc2)C1 (stereo not drawn) [Compound F105, 5-oxo-1-{4-[(tetrahydro-pyran-4-ylamino)-methyl]-phenyl}-pyrrolidine-3-carboxylic acid {5-[2-(4-chloro-phenyl)-ethyl]-[1,3,4]thiadiazol-2-yl}-amide; hydrochloride]	3 nM
O=C(Nc1cc(CCc2ccccc2)no1)C1CC(=O)N(c2ccc(CN3CCOCC3)cc2)C1 (stereo not drawn) [Compound F200, 1-[4-(morpholinomethyl)phenyl]-5-oxo-N-[3-(2-phenylethyl)isoxazol-5-yl]pyrrolidine-3-carboxamide]	760 nM
O=C(Nc1nnc(CCc2ccc(Cl)cc2)s1)C1CC(=O)N(c2ccc(CN3CCOCC3)cc2)C1 (stereo not drawn) [Compound F121, N-[5-[2-(4-chlorophenyl)ethyl]-1,3,4-thiadiazol-2-yl]-1-[4-(morpholinomethyl)phenyl]-5-oxo-pyrrolidine-3-carboxamide]	4 nM
O=C(Nc1nnc(CCC2CCCC2)s1)C1CC(=O)N(c2ccc(CN3CCCOCC3)cc2)C1 (stereo not drawn) [Compound F122, N-[5-(2-cyclopentylethyl)-1,3,4-thiadiazol-2-yl]-1-[4-(1,4-oxazepan-4-ylmethyl)phenyl]-5-oxo-pyrrolidine-3-carboxamide]	4 nM
